Data reported in PMC4627731, “Leishmanicidal Effect of Synthetic trans-Resveratrol Analogs” (PLoS ONE, 2015).
“And” between values parts separate entries of the source, which are not always exact repeats. Identical values can stand only once. Like-named read-outs stand apart in the source and are kept apart here.

Columns and labels:
[1] = test system: Leishmania amazonensis promastigotes; experiment: Anti-promastigote activity (XTT); format: cell-based; details: read-out: IC50 Promastigotes
Procedure: L. amazonensis (WHOM/BR/75/Josefa) promastigotes were cultured at 26°C in Schneider insect medium (Sigma), 10% fetal calf serum (Gibco-BRL, MD, US.) and 20 μg/mL of gentamycin (Schering-Plough, Rio de Janeiro, Brazil).
The leishmanicidal properties of the analogs were evaluated by measuring promastigotes’ mitochondrial activity using the XTT method with 2,3-bis-[2-methoxy-4-nitro-5-sulphophenyl]-2H-tetrazolium-5-carboxanilida, Sigma) as described previously. […] Sodium azide (10 μM) was used as a control, and the reaction product was read at 450 nm.

[2] = test system: Leishmania amazonensis promastigotes; experiment: Annexin V binding assay; format: cell-based; details: 48 h; piceatannol 100 μM, miltefosine 30 μM
Procedure: Double staining for annexin V-fluorescein isothiocyanate (FITC) and PI was performed with the Annexin-V apoptosis detection kit (Molecular Probes). […] They were then washed twice in cold annexin V-buffer and centrifuged at 2760 x g for 10 min. Pellets were resuspended in 20 μL of annexin V FITC, and after 15 min of incubation in the dark, 480 μL of annexin V-buffer was added according to the manufacturer instructions. Annexin V-FITC labeling was recorded on a BD FACScalibur (Becton and Dickson) and analyzed using CellQuest software.

[3] = test system: murine peritoneal macrophages; experiment: Nitric oxide production by macrophages (Griess); format: cell-based, mouse
Procedure: Thioglycolate-stimulated peritoneal macrophages were obtained as described above (10^6 cells/well in 24-well plate) and were activated with 1 μg/ml LPS (Sigma-Aldrich) or left untreated. […] The nitrite concentrations in the culture supernatants were determined using the Griess method. The reaction was read at 540 nm, and the concentration of NO2 ^- determined using a standard curve of sodium nitrite. The results are expressed as micromolar concentrations of nitrite.

[4] = test system: L. amazonensis intracellular amastigotes; experiment: Anti-amastigote activity in infected macrophages; format: cell-based, Leishmania amazonensis; details: for IC50: L. amazonensis in murine peritoneal macrophages, 24 h treatment; for SI (selectivity index; therapeutic index): ratio of CC50 on murine peritoneal macrophages to IC50 on L. amazonensis intracellular amastigotes
Procedure: Mice peritoneal macrophages obtained after stimulation with thioglycolate for 3 days were harvested in RPMI 1640 medium (LGC Biotecnologia, São Paulo, Brazil), 20 μg/mL of gentamycin and were plated onto 13 mm^2 coverslips inside 24-well plates for adherence for 2 h at 37°C, 5% CO2. Non-adherent cells were removed, and the macrophages were incubated overnight in RPMI supplemented with 10% FCS, as described above. Adhered macrophages were infected with L. amazonensis promastigotes (stationary growth phase) at a 10:1 parasite/macrophage ratio and incubated for 1 h at 34°C, 5% CO2. Free parasites were washed out with 0.01 M phosphate buffered saline (PBS), and the cultures maintained for 24 h at 37°C, 5% CO2. Infected macrophage cultures were treated with different concentrations of the analogs for an additional 24 h at 37°C, 5% CO2. Monolayers were then washed with PBS at 37°C, fixed in methanol, and stained with Giemsa. The number of amastigotes and the percentage of infected macrophages were determined by counting at least 200 cells in duplicate cultures. Endocytic indices were obtained by multiplying the percentage of infected macrophages by the mean number of amastigotes per infected macrophage. The results were expressed as the percentage of surviving macrophages based on endocytic indices of treated and untreated macrophages as reported previously.
The selectivity index was calculated as the ratio of murine peritoneal macrophages CC50 by L. amazonensis intracellular amastigotes IC50.

[5] = test system: Leishmania amazonensis promastigotes; experiment: Cell cycle analysis (PI, flow cytometry); format: cell-based; details: 48 h; for Effect on the cell cycle of the parasite: at promastigote IC50; for % cells in different stages of the cell cycle: G0/G1 / % cells in different stages of the cell cycle: G2/M / % cells in different stages of the cell cycle: S / % cells in different stages of the cell cycle: Sub-G0 / % cells: Hyperploidies: pterostilbene 17.7 μM, piceatannol 65 μM, polydatin 95.4 μM, oxyresveratrol 65 μM, mean ± SEM
Procedure: The cells were washed with PBS and fixed in 70% (v/v) ice-cold methanol/PBS for at least 1 h at 4°C. The fixed cells were washed once with PBS and then incubated in PBS supplemented with 10 μg/mL propidium iodide (PI) and 20 μg/mL RNAse at 37°C, 45 min, as reported. For each sample, 10000 events were collected on a BD FACScalibur (Becton and Dickson) and analyzed using CellQuest software.

[6] = test system: murine peritoneal macrophages; experiment: Detection of reactive oxygen species (DHR 123); format: cell-based, mouse; details: compounds at amastigote IC50
Procedure: Mice peritoneal macrophages were adhered to 96-well opaque culture plates and then infected or not with L. amazonensis promastigotes. […] The cells were then stained with 50 μM dihydrorhodamine 123 (DHR 123, Life Technologies), and ROS was measured immediately using 500/526 nm excitation/emission wavelengths.

[7] = Nitric oxide-trapping capacity, cell-free SNAP system; details: 1 mM SNAP, 6 h, rutin 1 mM, pterostilbene 33.2 μM, piceatannol 45 μM, polydatin 29 μM, oxyresveratrol 30.5 μM
Procedure: A cell-free system with an NO donor was used to test the capacity of resveratrol analogs to trap NO. SNAP (s-nitroso n-acetyl DL-penicillamine, Sigma) liberates nitric oxide in solution, which is then transformed to nitrite in the medium. The addition of a NO scavenger to the SNAP solution results in nitrite decay in the supernatant. […] One milimolar rutin (Sigma), a known NO scavenger, was used as a positive control for this assay. After 6 h of incubation, the nitrite concentration was determined using the Griess method. The results are expressed as the μM concentration of nitrite calculated in comparison with the sodium nitrite standard curve.

[8] = test system: promastigotes of L. infantum; details: cited from earlier work
[9] = test system: promastigotes of L. major; details: cited from earlier work
[10] = test system: promastigotes of L. donovani; details: cited from earlier work
[11] = Cytotoxicity for host macrophages (XTT); format: cell-based; details: mouse, murine peritoneal macrophages
Procedure: After 3 h of incubation, the reaction product was read at 450 nm. The results are expressed in percentage of viable cells compared to untreated control.

[12] = test system: amastigotes of L. donovani in RAW macrophages; details: cited from earlier work
[13] = test system: Leishmania amazonensis promastigotes; experiment: Mitochondrial membrane potential (JC-1); format: cell-based; details: 65 μM, 48 h, JC-1 red/green ratio
Procedure: Change in ΔΨm was measured using the mitochondria staining kit (Sigma-Aldrich).

[14] = test system: promastigote form of L. infantum; design: method as in PMID 23103597; details: cited from earlier work
[15] = test system: amastigote form of L. infantum; design: method as in PMID 23103597; details: cited from earlier work
[16] = macrophages infected with L. amazonensis, 29 μM polydatin, 30.5 μM oxyresveratrol
[17] = Leishmania amazonensis, Peritoneal macrophage
[18] = L. amazonensis infected macrophages
[19] = infected and PMA-stimulated macrophages
[20] = uninfected macrophages stimulated with 1 μg/mL PMA
[21] = uninfected macrophages stimulated with LPS, 33.2 μM pterostilbene, 45 μM piceatannol
[22] = Leishmania amazonensis, 48 h, L. amazonensis promastigotes, 48 h treatment, XTT
[23] = uninfected macrophages not stimulated, 33.2 μM pterostilbene, 29 μM polydatin
[24] = L. amazonensis promastigotes, 48 h treatment, XTT

Compound | IC50 [4, 17] [µM] | SI (selectivity index; therapeutic index) [4] | Effect on the cell cycle of the parasite [5] | % cells in different stages of the cell cycle: G0/G1 [5] [%] | % cells in different stages of the cell cycle: G2/M [5] [%] | % cells in different stages of the cell cycle: S [5] [%] | % cells in different stages of the cell cycle: Sub-G0 [5] [%] | % cells: Hyperploidies [5] [%] | Reduction of ROS levels [6, 18] [fold] | Reduction of ROS levels [6, 19] [fold] | Reduction of ROS levels [6, 20] [fold] | Reduction of ROS levels ([6]; uninfected macrophages) [fold] | Decrease of NO levels (NO scavenging) [7] | also measured
C[C@@H]1[C@H](O)[C@@H](C)/C=C/C=C/C=C/C=C/C=C/C=C/C=C/[C@H](O[C@@H]2O[C@H](C)[C@@H](O)[C@H](N)[C@@H]2O)C[C@@H]2O[C@](O)(C[C@@H](O)C[C@@H](O)[C@H](O)CC[C@@H](O)C[C@@H](O)CC(=O)O[C@H]1C)C[C@H](O)[C@H]2C(=O)O [Amphotericin B, reference compound] |  |  |  |  |  |  |  |  |  |  |  |  |  | IC50 ([1]; Leishmania amazonensis, 48 h): 0.1 µM
CCCCCCCCCCCCCCCCOP(=O)([O-])OCC[N+](C)(C)C [Miltefosine, reference compound] |  |  |  |  |  |  |  |  |  |  |  |  |  | Increase of annexin-V positive promastigotes in relation to untreated control [2]: 13.2 fold
Oc1cc(O)cc(/C=C/c2ccc(O)cc2O)c1 [Oxyresveratrol, trans-2,3′,4,5′-tetrahydroxystilbene] | 30.5 | 4.2 | did not alter the cell cycle | 34.380 ± 2.300 | 21.073 ± 2.386 | 9.570 ± 0.444 | 10.413 ± 3.895 | 24.862 ± 2.500 | 4.6 | 4.7 | 4.8 | 3.6 | did not reduce the levels of NO | Decrease of NO production [3, 16]: 2.0 fold; IC50 ([1]; Leishmania amazonensis, 48 h): 65 µM
Oc1cc(O)cc(/C=C/c2ccc(O)c(O)c2)c1 [Piceatannol, trans-3,4,3',5'-tetrahydroxystilbene] | 45 | >8.9 |  | 21.890 ± 0.840 | 14.273 ± 0.966 | 8.167 ± 0.522 | 30.990 ± 1.544 | 24.947 ± 0.801 | 5.8 | 6.6 | 4.3 | 3.4 | did not reduce the levels of NO | IC50 [8]: 16 µM; IC50 promastigotes of L. infantum [8]: 3.9 µg/mL; Decrease of NO production [3, 21]: 5.0 fold; IC50 [9]: 23.3 µM; IC50 promastigotes of L. major [9]: 5.7 µg/mL; IC50 [10]: 17.2 µM; IC50 promastigotes of L. donovani [10]: 4.2 µg/mL; Increase of annexin-V positive promastigotes in relation to untreated control [2]: 2.5 fold; IC50 [1, 22]: 65 µM; Decrease of cells in G0-G1 phase ([5]; 65 μM): 1.7 fold; Increase of cells in Sub-G0 phase ([5]; 65 μM): 5 fold; CC50 at 24 h [11]: > 400 µM; IC50 [12]: 30.3 µM; IC50 amastigotes of L. donovani in RAW macrophages [12]: 7.4 µg/mL; Reduction in the mitochondrial membrane potential (ΔΨm) [13]: 2.8 fold
OC[C@H]1O[C@@H](Oc2cc(O)cc(/C=C/c3ccc(O)cc3)c2)[C@H](O)[C@@H](O)[C@@H]1O [Polydatin, resveratrol-3-O-b-mono-D-glucoside] | 29 | 5.2 | did not alter the cell cycle | 32.040 ± 2.699 | 20.090 ± 2.661 | 8.698 ± 0.946 | 13.250 ± 4.747 | 26.233 ± 1.273 | 2.1 | 2.2 | 2.0 | 1.8 | did not reduce the levels of NO | Decrease of NO production [3, 16]: 6.1 fold; Decrease of NO production [3, 23]: 2.8 fold; IC50 [1, 24]: 95.5 µM; IC50 [1, 22]: 95 µM
C[C@@H]1O[C@@H](OC[C@H]2O[C@@H](Oc3c(-c4ccc(O)c(O)c4)oc4cc(O)cc(O)c4c3=O)[C@H](O)[C@@H](O)[C@@H]2O)[C@H](O)[C@H](O)[C@H]1O [rutin, reference compound] |  |  |  |  |  |  |  |  |  |  |  |  | 72% | 
trans-3,5-dimethoxy-4-hydroxystilbene [Pterostilbene] |  |  | did not alter the cell cycle | 42.380 ± 1.006 | 24.713 ± 1.331 | 7.823 ± 0.915 | 4.423 ± 0.216 | 20.873 ± 0.309 | 1.6 | 1.6 | 2.0 |  | 22% | Decrease of NO production [3, 23]: 3.8 fold; Decrease of NO production [3, 21]: 5.3 fold; IC50 [4]: 33.2 µM; IC50 ([1]; L. amazonensis promastigotes, 48 h treatment, XTT, listed as pterostilbene): 18 µM; IC50 [1, 24]: 17.7 µM; LD50 promastigote form of L. infantum [14]: 7.6 μg/mL and 29.6 μM; LD50 amastigote form of L. infantum [15]: 10.3 μg/mL and 40.2 μM
